SMILES strings stand for the structures.

The values that follow come from patent US20150212087A1, “Detection of the ERalpha/Src/PI3K Complex as Predictive Marker in Breast Cancer” (Centre Leon Berard, priority 2012, published 2015).

One experiment deals with ERα/PI3K interaction. Put plainly: In situ Proximity Ligation Assay (PLA) detection of ERα/PI3K interaction in MCF-7 cells. The experiment is classed as cell-based, human. The following applies: upon treatment. From the text:
(§1) Castoria et al. reported that estrogen rapidly triggers the interaction of ERα with Src and PI3K in MCF-7 cells, forming a complex involved in estrogen nongenomic-induced cell proliferation. […] Therefore the physiological relevance of this signaling pathway remains questionable. To date, immuno fluorescence analysis of the complex has been impeded by the fact that only a small population of ERα interacts with Src and PI3K. To circumvent this problem, we used a newly developed technique, the Proximity Ligation Assay. […] We investigated the ERα/PI3K interaction in the human breast tumor cell line MCF-7, using a rabbit anti-ERα together with a mouse anti-p85 antibody. The ERα/Src interaction was detected using the same anti-ERα together with a mouse anti-Src antibody. […] No dots were detected using only one antibody as confirmed by counting dots per 100 cells (FIG. 1, around 50 dots/cell versus less than 5). Importantly, the number of red dots increased after 5 min of estrogenic treatment then decreased after 15 min. This confirmed that upon estrogenic treatment, the formation of this complex is rapid and transitory (FIG. 2:)). […] They were detected exclusively in the […] of MCF-7 cells, as expected. […]

The subject of the next experiment is ERα/Src interaction. The experiment in a line: In situ Proximity Ligation Assay (PLA) detection of ERα/Src interaction in MCF-7 cells. The experiment is classed as cell-based, human. The note with it: upon treatment.
From the text: as §1

In the case of `Cc1ccc(-c2nn(C(C)(C)C)c3ncnc(N)c23)cc1` [PP1], in the experiment with ERα/PI3K interaction, the “ERα/PI3K interaction (red dots) by PLA” value is on record as “significant decrease of red dots”. The “ERα/Src interaction (red dots) by PLA” value in the experiment on ERα/Src interaction is recorded as “significant decrease of red dots”.
For the compound `CC/C(=C(\c1ccccc1)c1ccc(OCCN(C)C)cc1)c1ccccc1` [tamoxifen], in the experiment with ERα/PI3K interaction, the “ERα/PI3K interaction (red dots) by PLA” value is “decrease”. For the same compound, in the experiment with ERα/Src interaction, the “ERα/Src interaction (red dots) by PLA” value is recorded as “decrease”.
